Earlier results as cited in US20240108573A1, “NANOLIPID CARRIER BASED FORMULATION FOR BRAIN DELIVERY THROUGH INTRANASAL ROUTE AND ITS PREPARATION PROCESS” (AMRITA SCHOOL OF PHARMACY, AMRITA VISHWA VIDYAPEETHAM, priority 2022, published 2024).

O=C1NC(=O)C(c2ccccc2)(c2ccccc2)N1 [phenytoin sodium]
biological half-life: 15-22 hrs
